Residue numbers refer to the chain shown, from its start. pEC50: −log10 of the molar value. “Also recorded” adds a separate entry of the source. Read-outs that look alike come from different tables or passages of the source. Each block holds one molecule with its values, some of them ahead of it.
Tests used:
wild-type TAS2R16 = molecular target: T1, wild-type TAS2R16 (Homo sapiens, UniProt Q9NYV7); experiment: Ca2+ flux assay, HEK-293T cells expressing wild-type TAS2R16 and Gα16gust44; format: cell-based; conditions: for activation of TAS2R16 (agonist screen): compounds screened at 10 mM, wild-type TAS2R16, Fig. 2a
T1 construct: FLAG (N); expressed in transfected cells; host or cells: HEK-293T
T1 sequence (Q9NYV7 1-291): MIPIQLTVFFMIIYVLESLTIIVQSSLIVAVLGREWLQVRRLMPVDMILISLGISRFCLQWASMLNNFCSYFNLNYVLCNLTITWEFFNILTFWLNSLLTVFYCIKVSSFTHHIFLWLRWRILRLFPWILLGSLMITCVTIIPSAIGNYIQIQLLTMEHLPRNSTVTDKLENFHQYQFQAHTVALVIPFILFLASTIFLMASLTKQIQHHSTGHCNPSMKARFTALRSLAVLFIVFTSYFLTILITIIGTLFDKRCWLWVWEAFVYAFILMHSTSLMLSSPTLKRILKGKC
Description: (§1) The TAS2R16 mutation library was tested for function using a Ca^2+ flux assay as described previously. Later screens of individual TAS2R16 mutant clones used 4-nitrophenyl-β-D-glucopyranoside. Briefly, HEK-293T cells, in poly-lysine coated, black 384-well plates with clear bottoms (Costar), were transfected with the TAS2R16 mutation library, and a plasmid expressing a Gα16 chimera containing the last 44 amino acids of rat gustducin (Gα16gust44). Cells were incubated for 22 hours at 37 °C then washed twice with a calcium indicator dye in HBSS containing 20 mM HEPES (Calcium 4 Assay kit, Molecular Devices), incubated with HBSS for 1.5 hr, then moved to a Flexstation II-384 (Molecular Devices) set at 32 °C. […] Concentrations for mutation library screening were chosen to be approximately 2 to 3 times higher than the EC50 values for the ligands to maximize the sensitivity of detecting decreases in signaling due to the mutation in each clone.
(§2) For Ca^2+ flux assays, the value of fluorescence at 30 seconds after ligand addition (the time of peak signal for wild-type TAS2R16) was used as the maximum value. […] Raw data obtained from surface expression and flux experiments were normalized to the values for wild-type TAS2R16 on each plate. Data sets were analyzed and represented as percentage over baseline signal. Mean and standard deviation values were calculated for each clone from replicate assay data.
(§3) Ligand dose-response data was analyzed with Graphpad Prism 5 software. Data was baseline subtracted and then fit using a sigmoidal dose-response (variable slope) equation.

TAS2R38 = conditions: cited from earlier work
TAS2R43 = conditions: cited from earlier work
TAS2R16 [1] = conditions: cited from earlier work
W261A TAS2R16 = molecular target: T2, W261A TAS2R16 (Homo sapiens, UniProt Q9NYV7, W261A); experiment: Ca2+ flux assay, W261A TAS2R16 variant; format: cell-based; conditions: for activation of W261A variant: W261A TAS2R16, relative to wild-type; for decrease in EC50 with W261 mutation compared to WT: W261 to alanine or glycine vs WT
T2 construct: FLAG (N); expressed in transfected cells; host or cells: HEK-293T
T2 sequence (Q9NYV7 1-291 W261A): T1 sequence (Q9NYV7 1-291) with W261A
Description: as §1, §2, §3

S108T TAS2R16 = molecular target: T3, S108T TAS2R16 (Homo sapiens, UniProt Q9NYV7, S108T); experiment: Ca2+ flux assay, mutation library clone S108T; format: cell-based; conditions: library screening concentrations
T3 construct: FLAG (N); expressed in transfected cells; host or cells: HEK-293T
T3 sequence (Q9NYV7 1-291 S108T): T1 sequence (Q9NYV7 1-291) with S108T
Description: as §1, §2

N96A TAS2R16 = molecular target: T4, N96A TAS2R16 (Homo sapiens, UniProt Q9NYV7, N96A); experiment: Ca2+ flux assay, N96A TAS2R16 variant; format: cell-based; conditions: Fig. 7 dose-response
T4 construct: FLAG (N); expressed in transfected cells; host or cells: HEK-293T
T4 sequence (Q9NYV7 whole entry N96A): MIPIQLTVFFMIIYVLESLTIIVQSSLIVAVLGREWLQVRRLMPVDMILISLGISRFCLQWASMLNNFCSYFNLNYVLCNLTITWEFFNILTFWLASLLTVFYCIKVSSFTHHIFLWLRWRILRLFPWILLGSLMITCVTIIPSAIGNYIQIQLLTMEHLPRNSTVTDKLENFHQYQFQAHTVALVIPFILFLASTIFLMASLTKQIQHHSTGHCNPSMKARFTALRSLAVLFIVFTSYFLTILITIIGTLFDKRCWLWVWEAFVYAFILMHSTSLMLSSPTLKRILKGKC
Description: as §1
(§4) For Ca^2+ flux assays, the value of fluorescence at 30 seconds after ligand addition (the time of peak signal for wild-type TAS2R16) was used as the maximum value. […] Data sets were analyzed and represented as percentage over baseline signal. Mean and standard deviation values were calculated for each clone from replicate assay data.
(§5) Ligand dose-response data was analyzed with Graphpad Prism 5 software. […]

N96T TAS2R16 = molecular target: T5, N96T TAS2R16 (Homo sapiens, UniProt Q9NYV7, N96T); experiment: Ca2+ flux assay, N96T TAS2R16 variant; format: cell-based; conditions: Fig. 7 dose-response
T5 construct: FLAG (N); expressed in transfected cells; host or cells: HEK-293T
T5 sequence (Q9NYV7 whole entry N96T): as the sequence (Q9NYV7 whole entry N96A) above, with A96T counted along it
Description: as §1, §4, §5

S228T TAS2R16 = molecular target: T6, S228T TAS2R16 (Homo sapiens, UniProt Q9NYV7, S228T); experiment: Ca2+ flux assay, mutation library clone S228T; format: cell-based; conditions: library screening concentrations
T6 construct: FLAG (N); expressed in transfected cells; host or cells: HEK-293T
T6 sequence (Q9NYV7 1-291 S228T): T1 sequence (Q9NYV7 1-291) with S228T
Description: as §1, §2

TAS2R16 [2] = conditions: disaccharides; cited from earlier work
W261G TAS2R16 = molecular target: T7, W261G TAS2R16 (Homo sapiens, UniProt Q9NYV7, W261G); experiment: Ca2+ flux assay, mutation library clone W261G; format: cell-based; conditions: W261G TAS2R16, relative to wild-type, Fig. 5A
T7 construct: FLAG (N); expressed in transfected cells; host or cells: HEK-293T
T7 sequence (Q9NYV7 whole entry W261G): as the sequence (Q9NYV7 whole entry N96A) above, with A96N, W261G counted along it
Description: as §1, §4

C79A TAS2R16 = molecular target: T8, C79A TAS2R16 (Homo sapiens, UniProt Q9NYV7, C79A); experiment: Ca2+ flux assay, C79A TAS2R16 variant; format: cell-based; conditions: Figure S3
T8 construct: FLAG (N); expressed in transfected cells; host or cells: HEK-293T
T8 sequence (Q9NYV7 whole entry C79A): as the sequence (Q9NYV7 whole entry N96A) above, with C79A, A96N counted along it
Description: as §1, §4

[3] = Fig. 5b dose-response, W261A TAS2R16
[4] = Fig. 5b dose-response, wild-type TAS2R16, read-out: EC50 (WT)
[5] = Fig. 2d dose-response, wild-type TAS2R16, HEK-293T, read-out: EC50

Molecule: C=CCC(=NOS(=O)(=O)O)S[C@@H]1O[C@H](CO)[C@@H](O)[C@H](O)[C@H]1O (stereo in doubt) [sinigrin]
activation of wild-type TAS2R16 (wild-type TAS2R16; wild-type TAS2R16, HEK-293T): activation

Molecule: CCCN(CCC)S(=O)(=O)c1ccc(C(=O)O)cc1 [probenecid]
action on TAS2R38 (TAS2R38): allosteric inhibitor
action on TAS2R43 (TAS2R43): allosteric inhibitor
action on TAS2R16 (TAS2R16 [1]): allosteric inhibitor

EC50 (W261A) (W261A TAS2R16; [3]): high
EC50 (WT) (wild-type TAS2R16; Fig. 5b dose-response, wild-type TAS2R16): high
activation of wild-type TAS2R16 (wild-type TAS2R16; wild-type TAS2R16, HEK-293T): substantially weaker activation
Molecule: OC[C@H]1O[C@@H](Oc2ccccc2)[C@H](O)[C@@H](O)[C@@H]1O [phenyl-β-glucoside, phenyl-β-D-glucoside]

Ca2+ flux signaling value (S108T TAS2R16): 103 % of wild-type
pEC50 (W261A TAS2R16; [3]): 3.70
decrease in EC50 with W261 mutation compared to WT (W261A TAS2R16): ~ 4 fold
pEC50 (N96A TAS2R16): 3.00
pEC50 (N96T TAS2R16): 3.70
Ca2+ flux signaling value (S228T TAS2R16): 120 % of wild-type
pEC50 (wild-type TAS2R16; [4]): 3.10
pEC50 (wild-type TAS2R16; Fig. 6 comparative dose-response, wild-type TAS2R16, read-out: EC50 (WT)): 2.92
pEC50 (wild-type TAS2R16; Fig. 7 dose-response, wild-type TAS2R16, read-out: EC50 (WT)): 2.96
pEC50 (wild-type TAS2R16; [5]): 3.19
lower EC50 than 4-NP-β-glucoside (wild-type TAS2R16; wild-type TAS2R16, Fig. 6A): 4 fold
Molecule: O=[N+]([O-])c1ccc(O[C@@H]2O[C@H](CO)[C@@H](O)[C@H](O)[C@@H]2O)cc1 [4-NP-β-mannoside, 4-nitrophenyl-β-D-mannopyranoside]
activation of W261A variant (W261A TAS2R16): strongly activated; also recorded: increased the activation

Molecule: gentiobiose
activation of TAS2R16 (TAS2R16 [2]): activation

Molecule: N#C[C@H](O[C@@H]1O[C@H](CO[C@@H]2O[C@H](CO)[C@@H](O)[C@H](O)[C@H]2O)[C@@H](O)[C@H](O)[C@H]1O)c1ccccc1 [amygdalin]
activation of TAS2R16 (TAS2R16 [2]): activation

Ca2+ flux signaling value (S108T TAS2R16): 122 % of wild-type
Ca2+ flux signaling value (S228T TAS2R16): 122 % of wild-type
pEC50 (wild-type TAS2R16; [5]): 2.68
Molecule: CCCCCCO[C@@H]1O[C@H](CO)[C@@H](O)[C@H](O)[C@H]1O [hexyl-glucoside, hexyl-β-D-glucopyranoside]

pEC50 (W261A TAS2R16; [3]): 2.74
decrease in EC50 with W261 mutation compared to WT (W261A TAS2R16): ~ 4 fold
activation of W261G variant (W261G TAS2R16): higher than wild-type
pEC50 (wild-type TAS2R16; [4]): 2.31
Molecule: O=[N+]([O-])c1ccc(O[C@@H]2O[C@H](CO)[C@@H](O)[C@H](O)[C@H]2O)cc1 [4-NP-β-glucoside, 4-nitrophenyl-β-D-glucopyranoside]
activation of W261A variant (W261A TAS2R16): strongly activated; also recorded: higher than wild-type; also recorded: increased the activation

Ca2+ flux signaling value (S108T TAS2R16): 132 % of wild-type
Ca2+ flux signaling value (S228T TAS2R16): 105 % of wild-type
pEC50 (wild-type TAS2R16; [5]): 2.60
activation of TAS2R16 (agonist screen) (wild-type TAS2R16): moderate to robust activation
activation, % of wild-type activation (C79A TAS2R16): 90 % of wild-type
Molecule: CC(=O)N[C@H]1[C@H](Oc2ccccc2)O[C@H](CO)[C@@H](O)[C@@H]1O [β-glucosaminide, phenyl-N-acetyl-β-D-glucosaminide]

Molecule: OC[C@H]1O[C@@H](Sc2ccccc2)[C@H](O)[C@@H](O)[C@@H]1O [phenyl-β-D-thioglucopyranoside]
activation of TAS2R16 (agonist screen) (wild-type TAS2R16): moderate to robust activation
activation of wild-type TAS2R16 (wild-type TAS2R16; wild-type TAS2R16, HEK-293T): activation
